From patent publication US9464082B2, “Aryl and arylalkyl substituted pyrazolyl and pyrimidinyl tricyclic enones as antioxidant inflammation modulators” (AbbVie Inc., priority 2014, dated 2016) come the findings set out here.

Molecules are shown by their SMILES.

The experiment concerns IFNγ-Induced NO Production. Kind of experiment: Nitric Oxide Suppression Assay (Suppression of IFNγ-Induced NO Production). The format is cell-based. The settings on record: RAW264.7; RAW 264.7 mouse macrophage cells; 2 hour pre-treatment with compound (3 μM to 0.3 nM, 10 point curve); 20 ng/mL interferon gamma, ~18 hour; Griess detection; n=2-3 in duplicates. Summed up:
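Griess-based absorbance read (520–550 nm) of supernatant after RAW 264.7 mouse macrophages received 10-point compound dilutions (3 μM–0.3 nM, DMSO ≤1%) for 2 h, then 20 ng/mL IFNγ for ~18 h at 37 °C. Signal normalised to IFNγ-only peak; IC50 fitted to mean of n=2-3 duplicates.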
A general note: Griess reagent forms a coloured azo dye with nitrite.
Take `COC(=O)c1ccc(-c2cccc(-c3nc(C)nc4c3CC[C@H]3[C@H](C)C(=O)C(C#N)=C[C@]43c3ccccc3)c2)cc1` [Example 134, methyl 3′-[(6aS,7S,10aR)-9-cyano-2,7-dimethyl-8-oxo-10a-phenyl-5,6,6a,7,8,10a-hexahydrobenzo[h]quinazolin-4-yl]biphenyl-4-carboxylate]: the IC50 – broadly, the concentration at which inhibition is half-maximal – was 6.9 nM.

`Cc1nc(-c2cccc(-c3ccc(C(N)=O)cc3)c2)c2c(n1)[C@@]1(c3ccccc3)C=C(C#N)C(=O)[C@@H](C)[C@@H]1CC2` [Example 135, 3′-[(6aS,7S,10aR)-9-cyano-2,7-dimethyl-8-oxo-10a-phenyl-5,6,6a,7,8,10a-hexahydrobenzo[h]quinazolin-4-yl]biphenyl-4-carboxamide]: the IC50 was determined as 8.22 nM.

Turning to `C[C@@H]1C(=O)C(C#N)=C[C@]2(c3ccccc3)c3nc(-c4ccc(C(N)=O)cc4)ncc3CC[C@@H]12` [Example 136, 4-[(6aS,7S,10aR)-9-cyano-7-methyl-8-oxo-10a-phenyl-5,6,6a,7,8,10a-hexahydrobenzo[h]quinazolin-2-yl]benzamide], the IC50 worked out at 3.37 nM.

Consider `C[C@@H]1C(=O)C(C#N)=C[C@]2(c3cccc(O)c3)c3ncncc3CC[C@@H]12` [Example 137, (6aS,7S,10aR)-10a-(3-hydroxyphenyl)-7-methyl-8-oxo-5,6,6a,7,8,10a-hexahydrobenzo[h]quinazoline-9-carbonitrile], for which the IC50 was found to be 8.93 nM.

For `C[C@@H]1C(=O)C(C#N)=C[C@]2(c3ccccc3)c3nc(-c4ccc(C(=O)N(C)C)cc4)ncc3CC[C@@H]12` [Example 138, 4-[(6aS,7S,10aR)-9-cyano-7-methyl-8-oxo-10a-phenyl-5,6,6a,7,8,10a-hexahydrobenzo[h]quinazolin-2-yl]-N,N-dimethylbenzamide], the 50% inhibitory concentration (IC50) was 5.26 nM.

With `Cc1nc(-c2ccc(-c3cncn3C)cc2)c2c(n1)[C@@]1(c3ccccc3)C=C(C#N)C(=O)[C@@H](C)[C@@H]1CC2` [Example 139, (6aS,7S,10aR)-2,7-dimethyl-4-[4-(1-methyl-1H-imidazol-5-yl)phenyl]-8-oxo-10a-phenyl-5,6,6a,7,8,10a-hexahydrobenzo[h]quinazoline-9-carbonitrile], the IC50 came out at 19 nM.

For `C[C@@H]1C(=O)C(C#N)=C[C@]2(c3ccccc3)c3n[nH]c(-c4ccnnc4)c3CC[C@@H]12` [Example 140, (5aS,6S,9aR)-6-methyl-7-oxo-9a-phenyl-3-(pyridazin-4-yl)-4,5,5a,6,7,9a-hexahydro-2H-benzo[g]indazole-8-carbonitrile], the IC50 was 8.45 nM.

Take `C[C@@H]1C(=O)C(C#N)=C[C@]2(c3ccccc3)c3n[nH]c(-c4cnn(CC(=O)O)c4)c3CC[C@@H]12` [Example 141, {4-[(5aS,6S,9aR)-8-cyano-6-methyl-7-oxo-9a-phenyl-4,5,5a,6,7,9a-hexahydro-2H-benzo[g]indazol-3-yl]-1H-pyrazol-1-yl}acetic acid]: the IC50 was 4 nM.

As to `COC(=O)c1cccc([C@]23C=C(C(N)=O)C(=O)[C@@H](C)[C@@H]2CCc2cncnc23)c1` [Example 142, methyl 3-[(6aS,7S,10aR)-9-carbamoyl-7-methyl-8-oxo-6,6a,7,8-tetrahydrobenzo[h]quinazolin-10a(5H)-yl]benzoate], the IC50 stood at 2280 nM.

Regarding `C[C@@H]1C(=O)C(C#N)=C[C@]2(c3ccccc3)c3nn(C)c(-c4ccc(-c5ccncc5)cc4)c3CC[C@@H]12` [Example 143, (5aS,6S,9aR)-2,6-dimethyl-7-oxo-9a-phenyl-3-[4-(pyridin-4-yl)phenyl]-4,5,5a,6,7,9a-hexahydro-2H-benzo[g]indazole-8-carbonitrile], the IC50 was determined as 69.3 nM.

For the compound `C[C@@H]1C(=O)C(C#N)=C[C@]2(c3ccccc3)c3nn(C)c(-c4ccc(-c5cncnc5)cc4)c3CC[C@@H]12` [Example 144, (5aS,6S,9aR)-2,6-dimethyl-7-oxo-9a-phenyl-3-[4-(pyrimidin-5-yl)phenyl]-4,5,5a,6,7,9a-hexahydro-2H-benzo[g]indazole-8-carbonitrile], the IC50 is 18.1 nM.

As for `Cc1nc(-c2ccc(-c3cncnc3)cc2)c2c(n1)[C@@]1(c3ccccc3)C=C(C(N)=O)C(=O)[C@@H](C)[C@@H]1CC2` [Example 145, (6aS,7S,10aR)-2,7-dimethyl-8-oxo-10a-phenyl-4-[4-(pyrimidin-5-yl)phenyl]-5,6,6a,7,8,10a-hexahydrobenzo[h]quinazoline-9-carboxamide], the IC50 is greater than 1000 nM.

As for `Cc1nc(-c2ccc(N3CCOCC3)c(Br)c2)c2c(n1)[C@@]1(c3ccccc3)C=C(C#N)C(=O)[C@@H](C)[C@@H]1CC2` [Example 146, (6aS,7S,10aR)-4-[3-bromo-4-(morpholin-4-yl)phenyl]-2,7-dimethyl-8-oxo-10a-phenyl-5,6,6a,7,8,10a-hexahydrobenzo[h]quinazoline-9-carbonitrile], the IC50 was 52.2 nM.

As to `Cc1nc(Nc2cccnc2)c2c(n1)[C@@]1(c3ccccc3)C=C(C#N)C(=O)[C@@H](C)[C@@H]1CC2` [Example 147, (6aS,7S,10aR)-2,7-dimethyl-8-oxo-10a-phenyl-4-(pyridin-3-ylamino)-5,6,6a,7,8,10a-hexahydrobenzo[h]quinazoline-9-carbonitrile], the IC50 worked out at 48 nM.

Turning to `C[C@@H]1C(=O)C(C#N)=C[C@]2(c3ccccc3)c3nn(C)c(-c4cccc(Br)c4)c3CC[C@@H]12` [Example 148, (5aS,6S,9aR)-3-(3-bromophenyl)-2,6-dimethyl-7-oxo-9a-phenyl-4,5,5a,6,7,9a-hexahydro-2H-benzo[g]indazole-8-carbonitrile], the IC50 turned out to be 31.5 nM.

Turning to `C[C@@H]1C(=O)C(C#N)=C[C@]2(c3ccccc3)c3nn(C)c(-c4cccc(-c5ccc(N)cc5)c4)c3CC[C@@H]12` [Example 149, (5aS,6S,9aR)-3-(4′-aminobiphenyl-3-yl)-2,6-dimethyl-7-oxo-9a-phenyl-4,5,5a,6,7,9a-hexahydro-2H-benzo[g]indazole-8-carbonitrile], the IC50 was found to be 7.32 nM.

On to `C[C@@H]1C(=O)C(C#N)=C[C@]2(c3ccccc3)c3nn(C)c(-c4cccc(-c5cccc(NS(C)(=O)=O)c5)c4)c3CC[C@@H]12` [Example 150, N-{3′-[(5aS,6S,9aR)-8-cyano-2,6-dimethyl-7-oxo-9a-phenyl-4,5,5a,6,7,9a-hexahydro-2H-benzo[g]indazol-3-yl]biphenyl-3-yl}methanesulfonamide], for which the IC50 came out at 2.26 nM.

In the case of `C[C@@H]1C(=O)C(C#N)=C[C@]2(c3ccccc3)c3nn(C)c(-c4cccc(-c5ccnnc5)c4)c3CC[C@@H]12` [Example 151, (5aS,6S,9aR)-2,6-dimethyl-7-oxo-9a-phenyl-3-[3-(pyridazin-4-yl)phenyl]-4,5,5a,6,7,9a-hexahydro-2H-benzo[g]indazole-8-carbonitrile], the IC50 was found to be 6.81 nM.

For `C[C@@H]1C(=O)C(C#N)=C[C@]2(c3ccccc3)c3nn(C)c(-c4cccc(-c5ccc(N(S(C)(=O)=O)S(C)(=O)=O)cc5)c4)c3CC[C@@H]12` [Example 152, N-{3′-[(5aS,6S,9aR)-8-cyano-2,6-dimethyl-7-oxo-9a-phenyl-4,5,5a,6,7,9a-hexahydro-2H-benzo[g]indazol-3-yl]biphenyl-4-yl}-N-(methylsulfonyl)methanesulfonamide], the IC50 is 11.5 nM.

With `COc1ncc(-c2cccc(-c3c4c(nn3C)[C@@]3(c5ccccc5)C=C(C#N)C(=O)[C@@H](C)[C@@H]3CC4)c2)cn1` [Example 153, (5aS,6S,9aR)-3-[3-(2-methoxypyrimidin-5-yl)phenyl]-2,6-dimethyl-7-oxo-9a-phenyl-4,5,5a,6,7,9a-hexahydro-2H-benzo[g]indazole-8-carbonitrile], the IC50 came to 6.46 nM.

In the case of `COC(=O)CCc1cccc(-c2nc(C)nc3c2CC[C@H]2[C@H](C)C(=O)C(C#N)=C[C@]32c2ccccc2)c1` [Example 154, methyl 3-{3-[(6aS,7S,10aR)-9-cyano-2,7-dimethyl-8-oxo-10a-phenyl-5,6,6a,7,8,10a-hexahydrobenzo[h]quinazolin-4-yl]phenyl}propanoate], the IC50 stood at 47.5 nM.

In the case of `Cc1nc(-c2cccc(CCC(=O)O)c2)c2c(n1)[C@@]1(c3ccccc3)C=C(C#N)C(=O)[C@@H](C)[C@@H]1CC2` [Example 155, 3-{3-[(6aS,7S,10aR)-9-cyano-2,7-dimethyl-8-oxo-10a-phenyl-5,6,6a,7,8,10a-hexahydrobenzo[h]quinazolin-4-yl]phenyl}propanoic acid], the half-maximal inhibitory concentration (IC50) turned out to be 107 nM.

As for `Cc1nc(-c2cccc(CCC(N)=O)c2)c2c(n1)[C@@]1(c3ccccc3)C=C(C#N)C(=O)[C@@H](C)[C@@H]1CC2` [Example 156, 3-{3-[(6aS,7S,10aR)-9-cyano-2,7-dimethyl-8-oxo-10a-phenyl-5,6,6a,7,8,10a-hexahydrobenzo[h]quinazolin-4-yl]phenyl}propanamide], the IC50 came out at 3.57 nM.

In the case of `C[C@@H]1C(=O)C(C#N)=C[C@]2(c3ccccc3)c3n[nH]c(-c4cnn(-c5ccc(C#N)cc5)c4)c3CC[C@@H]12` [Example 157, (5aS,6S,9aR)-3-[1-(4-cyanophenyl)-1H-pyrazol-4-yl]-6-methyl-7-oxo-9a-phenyl-4,5,5a,6,7,9a-hexahydro-2H-benzo[g]indazole-8-carbonitrile], the IC50 turned out to be 44.4 nM.

As for `C[C@@H]1C(=O)C(C#N)=C[C@]2(c3ccccc3)c3n[nH]c(-c4cnn(-c5cccnc5)c4)c3CC[C@@H]12` [Example 158, (5aS,6S,9aR)-6-methyl-7-oxo-9a-phenyl-3-[1-(pyridin-3-yl)-1H-pyrazol-4-yl]-4,5,5a,6,7,9a-hexahydro-2H-benzo[g]indazole-8-carbonitrile], the IC50 turned out to be 33 nM.

As for `C[C@@H]1C(=O)C(C#N)=C[C@]2(c3ccccc3)c3n[nH]c(-c4cnn(-c5ccncc5)c4)c3CC[C@@H]12` [Example 159, (5aS,6S,9aR)-6-methyl-7-oxo-9a-phenyl-3-[1-(pyridin-4-yl)-1H-pyrazol-4-yl]-4,5,5a,6,7,9a-hexahydro-2H-benzo[g]indazole-8-carbonitrile], the IC50 was determined as 33.8 nM.
